Measurements taken from the NIST ThermoML archive (doi:10.1016/j.jct.2012.01.013).
Numbers after ± are expanded uncertainties.

Assay: xn = mol fraction of the nth substance listed
Details: 101 kPa, Liquid; for viscosity: Falling or rolling sphere viscometry; for mass density: Vibrating tube method

CC(=O)[O-].Cn1cc[nH+]c1 [1-methylimidazolium acetate] + CCO
Details	mass density, 293.15 K [kg/m3]	mass density, 298.15 K [kg/m3]	mass density, 303.15 K [kg/m3]	mass density, 308.15 K [kg/m3]	mass density, 313.15 K [kg/m3]	viscosity, 293.15 K [mPa·s]	viscosity, 298.15 K [mPa·s]	viscosity, 303.15 K [mPa·s]	viscosity, 308.15 K [mPa·s]	viscosity, 313.15 K [mPa·s]
x1 = 0.0495	823.45 ± 0.61	819.02 ± 0.61	814.55 ± 0.61	810.04 ± 0.61	805.49 ± 0.61	1.366 ± 0.061	1.236 ± 0.061	1.123 ± 0.061	1.024 ± 0.061	0.938 ± 0.06
x1 = 0.0964	851.37 ± 0.53	846.85 ± 0.53	842.29 ± 0.53	837.69 ± 0.53	833.06 ± 0.53	1.578 ± 0.061	1.421 ± 0.061	1.268 ± 0.061	1.153 ± 0.061	1.052 ± 0.061
x1 = 0.2004	902.14 ± 0.46	897.55 ± 0.46	892.91 ± 0.46	888.25 ± 0.46	883.55 ± 0.46	1.995 ± 0.062	1.789 ± 0.062	1.612 ± 0.061	1.458 ± 0.061	1.325 ± 0.061
x1 = 0.2986	940.21 ± 0.37	935.59 ± 0.37	930.94 ± 0.37	926.27 ± 0.37	921.57 ± 0.37	2.485 ± 0.063	2.212 ± 0.062	1.981 ± 0.062	1.784 ± 0.062	1.614 ± 0.061
x1 = 0.401	972.28 ± 0.32	967.67 ± 0.32	963.03 ± 0.32	958.37 ± 0.32	953.69 ± 0.32	3.048 ± 0.065	2.695 ± 0.064	2.399 ± 0.063	2.148 ± 0.062	1.935 ± 0.062
x1 = 0.4973	997.47 ± 0.27	992.88 ± 0.27	988.27 ± 0.27	983.64 ± 0.27	978.99 ± 0.27	3.642 ± 0.067	3.199 ± 0.065	2.833 ± 0.064	2.524 ± 0.063	2.264 ± 0.063
x1 = 0.6499	1029.38 ± 0.25	1024.83 ± 0.25	1020.26 ± 0.25	1015.69 ± 0.25	1011.1 ± 0.25	4.686 ± 0.071	4.061 ± 0.069	3.576 ± 0.067	3.146 ± 0.065	2.798 ± 0.064
x1 = 0.8003	1053.98 ± 0.26	1049.49 ± 0.26	1044.97 ± 0.26	1040.45 ± 0.26	1035.92 ± 0.26	5.85 ± 0.078	5.024 ± 0.073	4.363 ± 0.07	3.826 ± 0.068	3.384 ± 0.066
x1 = 0.8941	1066.93 ± 0.28	1062.47 ± 0.28	1057.99 ± 0.28	1053.51 ± 0.28	1049.01 ± 0.27	6.855 ± 0.084	5.847 ± 0.079	5.04 ± 0.074	4.357 ± 0.071	3.829 ± 0.068
